Measurements taken from patent US20260053932A1, “COMPOUNDS AND METHODS FOR THE TARGETED DEGRADATION OF ANDROGEN RECEPTOR AND ASSOCIATED METHODS OF USE” (Arvinas Operations, Inc., priority 2020, published 2026).

Tested on: androgen receptor (AR) in LNCaP and/or VCaP cells
Assay: Androgen Receptor ELISA assay (AR degradation)
Type: cell-based
Conditions: degradation of AR ELISA in LNCaP and/or VCaP cells; Table 2C; read-out: DC50 Code*
Outline: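 VCaP cells grown ≥3 days, then treated 5 h with compound in media containing 1 nM R1881 (10× stock). Cells lysed and AR quantified by sandwich ELISA (mouse AR detection Ab, HRP anti-mouse, TMB). DC50 and Dmax derived from AR degradation.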

Row | Structure (SMILES) | DC50
1 | COCCN(CC1CCN(c2cnc(C(=O)N[C@H]3C(C)(C)[C@H](Oc4cc(C)c(C#N)c(C)c4)C3(C)C)cn2)CC1)[C@H]1C[C@H](Oc2ccc3c(c2)C(=O)N(C2CCC(=O)NC2=O)C3=O)C1 (some centres unmarked) [compound 119, N-((1r,3r)-3-(4-cyano-3,5-dimethylphenoxy)-2,2,4,4-tetramethylcyclobutyl)-5-(4-((((1r,3r)-3-((2-(2,6-dioxopiperidin-3-yl)-1,3-dioxoisoindolin-5-yl)oxy)cyclobutyl)(2-methoxyethyl)amino)methyl)piperidin-1-yl)pyrazine-2-carboxamide] | < 1 nM
2 | CCc1c(O[C@H]2C[C@H](N(CC3CCN(c4cnc(C(=O)N[C@H]5C(C)(C)[C@H](Oc6ccc(C#N)c(Cl)c6)C5(C)C)cn4)CC3)C(C)C)C2)ccc2c1CN(C1CCC(=O)NC1=O)C2=O (some centres unmarked) [compound 120, N-((1r,3r)-3-(3-chloro-4-cyanophenoxy)-2,2,4,4-tetramethylcyclobutyl)-5-(4-((((1r,3r)-3-((2-(2,6-dioxopiperidin-3-yl)-4-ethyl-1-oxoisoindolin-5-yl)oxy)cyclobutyl) (isopropyl)amino)methyl)piperidin-1-yl)pyrazine-2-carboxamide] | < 1 nM
3 | COCCN(CC1CCN(c2ccc(C(=O)N[C@H]3C(C)(C)[C@H](Oc4cc(C)c(C#N)c(C)c4)C3(C)C)nn2)CC1)[C@H]1C[C@H](Oc2ccc3c(c2)C(=O)N(C2CCC(=O)NC2=O)C3=O)C1 (some centres unmarked) [compound 121, N-((1r,3r)-3-(4-cyano-3,5-dimethylphenoxy)-2,2,4,4-tetramethylcyclobutyl)-6-(4-((((1r,3r)-3-((2-(2,6-dioxopiperidin-3-yl)-1,3-dioxoisoindolin-5-yl)oxy)cyclobutyl)(2-methoxyethyl)amino)methyl)piperidin-1-yl)pyridazine-3-carboxamide] | < 1 nM
4 | COc1cc(O[C@H]2C(C)(C)[C@H](NC(=O)c3cnc(N4CC5(CC(CN(C(C)C)[C@H]6C[C@H](Oc7ccc8c(c7)C(=O)N(C7CCC(=O)NC7=O)C8=O)C6)C5)C4)cn3)C2(C)C)ccc1C#N (some centres unmarked) [compound 122, N-((1r,3r)-3-(4-cyano-3-methoxyphenoxy)-2,2,4,4-tetramethylcyclobutyl)-5-(6-((((1r,3r)-3-((2-(2,6-dioxopiperidin-3-yl)-1,3-dioxoisoindolin-5-yl)oxy)cyclobutyl) (isopropyl)amino)methyl)-2-azaspiro[3.3]heptan-2-yl)pyrazine-2-carboxamide] | < 1 nM
5 | CC(C)N(CC1CCN(c2cnc(C(=O)N[C@H]3C(C)(C)[C@H](Oc4ccc(C#N)c(Cl)c4)C3(C)C)cn2)CC1)[C@H]1C[C@H](Oc2ccc3c(c2)C(=O)N(C2CCC(=O)NC2=O)C3)C1 (some centres unmarked) [compound 123, N-((1r,3r)-3-(3-chloro-4-cyanophenoxy)-2,2,4,4-tetramethylcyclobutyl)-5-(4-((((1r,3r)-3-((2-(2,6-dioxopiperidin-3-yl)-3-oxoisoindolin-5-yl)oxy)cyclobutyl) (isopropyl)amino)methyl)piperidin-1-yl)pyrazine-2-carboxamide] | < 1 nM
6 | COc1cc(O[C@H]2C[C@H](N(CC3CCN(c4cnc(C(=O)N[C@H]5C(C)(C)[C@H](Oc6ccc(C#N)c(Cl)c6)C5(C)C)cn4)CC3)C(C)C)C2)cc2c1C(=O)N(C1CCC(=O)NC1=O)C2=O (some centres unmarked) [compound 124, N-((1r,3r)-3-(3-chloro-4-cyanophenoxy)-2,2,4,4-tetramethylcyclobutyl)-5-(4-((((1r,3r)-3-((2-(2,6-dioxopiperidin-3-yl)-7-methoxy-1,3-dioxoisoindolin-5-yl)oxy)cyclobutyl) (isopropyl)amino)methyl)piperidin-1-yl)pyrazine-2-carboxamide] | < 1 nM
7 | CC1(C)[C@H](NC(=O)c2ccc(N3CCN([C@H]4CC[C@H](Oc5ccc6c(c5)C(=O)N(C5CCC(=O)NC5=O)C6=O)C4)CC3)cc2)C(C)(C)[C@H]1Oc1ccc(C#N)c(Cl)c1 (stereo partly drawn) [compound 125, N-((1r,3S)-3-(3-chloro-4-cyanophenoxy)-2,2,4,4-tetramethylcyclobutyl)-4-(4-((1S,3S)-3-((2-(2,6-dioxopiperidin-3-yl)-1,3-dioxoisoindolin-5-yl)oxy)cyclopentyl)piperazin-1-yl)benzamide] | < 1 nM
8 | COCCN(CC1CCN(c2ccc(C(=O)N[C@H]3C(C)(C)[C@H](Oc4ccc(C#N)c(Cl)c4)C3(C)C)nn2)CC1)[C@H]1C[C@H](Oc2ccc3c(c2)C(=O)N(C2CCC(=O)NC2=O)C3=O)C1 (some centres unmarked) [compound 127, N-((1r,3r)-3-(3-chloro-4-cyanophenoxy)-2,2,4,4-tetramethylcyclobutyl)-6-(4-((((1r,3r)-3-((2-(2,6-dioxopiperidin-3-yl)-1,3-dioxoisoindolin-5-yl)oxy)cyclobutyl)(2-methoxyethyl)amino)methyl)piperidin-1-yl)pyridazine-3-carboxamide] | < 1 nM
9 | Cc1cc(O[C@H]2C(C)(C)[C@H](NC(=O)c3ccc(N4CCC(CN(C(C)C)[C@H]5C[C@H](Oc6ccc7c(c6)C(=O)N(C6CCC(=O)NC6=O)C7=O)C5)CC4)cn3)C2(C)C)cc(C)c1C#N (some centres unmarked) [compound 128, N-((1r,3r)-3-(4-cyano-3,5-dimethylphenoxy)-2,2,4,4-tetramethylcyclobutyl)-5-(4-((((1r,3r)-3-((2-(2,6-dioxopiperidin-3-yl)-1,3-dioxoisoindolin-5-yl)oxy)cyclobutyl) (isopropyl)amino)methyl)piperidin-1-yl)picolinamide] | 1 to 10 nM
10 | COc1cc(O[C@H]2C(C)(C)[C@H](NC(=O)c3cnc(N4CC(CN(C(C)C)[C@H]5C[C@H](Oc6ccc7c(c6)C(=O)N(C6CCC(=O)NC6=O)C7=O)C5)C4)cn3)C2(C)C)ccc1C#N (some centres unmarked) [compound 130, N-((1r,3r)-3-(4-cyano-3-methoxyphenoxy)-2,2,4,4-tetramethylcyclobutyl)-5-(3-((((1r,3r)-3-((2-(2,6-dioxopiperidin-3-yl)-1,3-dioxoisoindolin-5-yl)oxy)cyclobutyl) (isopropyl)amino)methyl)azetidin-1-yl)pyrazine-2-carboxamide] | 1 to 10 nM
11 | Cc1cc(O[C@H]2C(C)(C)[C@H](NC(=O)c3cnc(N4CC(CN(C(C)C)[C@H]5C[C@H](Oc6ccc7c(c6)C(=O)N(C6CCC(=O)NC6=O)C7=O)C5)C4)cn3)C2(C)C)cc(C)c1C#N (some centres unmarked) [compound 131, N-((1r,3r)-3-(4-cyano-3,5-dimethylphenoxy)-2,2,4,4-tetramethylcyclobutyl)-5-(3-((((1r,3r)-3-((2-(2,6-dioxopiperidin-3-yl)-1,3-dioxoisoindolin-5-yl)oxy)cyclobutyl) (isopropyl)amino)methyl)azetidin-1-yl)pyrazine-2-carboxamide] | 1 to 10 nM
12 | Cc1cc(O[C@H]2C(C)(C)[C@H](NC(=O)c3ncc(N4CCC(CN(C(C)C)[C@H]5C[C@H](Oc6ccc7c(c6)C(=O)N(C6CCC(=O)NC6=O)C7=O)C5)CC4)cn3)C2(C)C)cc(C)c1C#N (some centres unmarked) [compound 132, N-((1r,3r)-3-(4-cyano-3,5-dimethylphenoxy)-2,2,4,4-tetramethylcyclobutyl)-5-(4-((((1r,3r)-3-((2-(2,6-dioxopiperidin-3-yl)-1,3-dioxoisoindolin-5-yl)oxy)cyclobutyl) (isopropyl)amino)methyl)piperidin-1-yl)pyrimidine-2-carboxamide] | 1 to 10 nM
13 | Cc1cc(O[C@H]2C(C)(C)[C@H](NC(=O)c3cnc(N4CC(CCN5CCC(Oc6ccc7c(c6)C(=O)N(C6CCC(=O)NC6=O)C7=O)CC5)C4)nc3)C2(C)C)cc(C)c1C#N (some centres unmarked) [compound 133, N-((1r,3r)-3-(4-cyano-3,5-dimethylphenoxy)-2,2,4,4-tetramethylcyclobutyl)-2-(3-(2-(4-((2-(2,6-dioxopiperidin-3-yl)-1,3-dioxoisoindolin-5-yl)oxy)piperidin-1-yl)ethyl)azetidin-1-yl)pyrimidine-5-carboxamide] | 1 to 10 nM
14 | CCOc1cc(O[C@H]2C(C)(C)[C@H](NC(=O)c3cnc(N4CC(CN(C(C)C)[C@H]5C[C@H](Oc6ccc7c(c6)C(=O)N(C6CCC(=O)NC6=O)C7=O)C5)C4)cn3)C2(C)C)ccc1C#N (some centres unmarked) [compound 134, N-((1r,3r)-3-(4-cyano-3-ethoxyphenoxy)-2,2,4,4-tetramethylcyclobutyl)-5-(3-((((1r,3r)-3-((2-(2,6-dioxopiperidin-3-yl)-1,3-dioxoisoindolin-5-yl)oxy)cyclobutyl) (isopropyl)amino)methyl)azetidin-1-yl)pyrazine-2-carboxamide] | 1 to 10 nM
15 | COc1cc(O[C@H]2C(C)(C)[C@H](NC(=O)c3cnc(N4CCC(CN(CC(F)F)[C@H]5C[C@H](Oc6cc(OC)c7c(c6)C(=O)N(C6CCC(=O)NC6=O)C7=O)C5)CC4)cn3)C2(C)C)ccc1C#N (some centres unmarked) [compound 135, N-((1r,3r)-3-(4-cyano-3-methoxyphenoxy)-2,2,4,4-tetramethylcyclobutyl)-5-(4-(((2,2-difluoroethyl)((1r,3r)-3-((2-(2,6-dioxopiperidin-3-yl)-7-methoxy-1,3-dioxoisoindolin-5-yl)oxy)cyclobutyl)amino)methyl)piperidin-1-yl)pyrazine-2-carboxamide] | 1 to 10 nM
16 | COc1cc(O[C@H]2C[C@H](N(CC(F)F)CC3CCN(c4ccc(C(=O)N[C@H]5C(C)(C)[C@H](Oc6ccc(C#N)c(Cl)c6)C5(C)C)cc4)CC3)C2)cc2c1C(=O)N(C1CCC(=O)NC1=O)C2=O (some centres unmarked) [compound 136, N-((1r,3r)-3-(3-chloro-4-cyanophenoxy)-2,2,4,4-tetramethylcyclobutyl)-4-(4-(((2,2-difluoroethyl)((1r,3r)-3-((2-(2,6-dioxopiperidin-3-yl)-7-methoxy-1,3-dioxoisoindolin-5-yl)oxy)cyclobutyl)amino)methyl)piperidin-1-yl)benzamide] | 1 to 10 nM
17 | COc1cc(O[C@H]2C[C@H](N(CC(F)F)CC3CCN(c4cnc(C(=O)N[C@H]5C(C)(C)[C@H](Oc6ccc(C#N)c(Cl)c6)C5(C)C)cn4)CC3)C2)cc2c1C(=O)N(C1CCC(=O)NC1=O)C2=O (some centres unmarked) [compound 137, N-((1r,3r)-3-(3-chloro-4-cyanophenoxy)-2,2,4,4-tetramethylcyclobutyl)-5-(4-(((2,2-difluoroethyl)((1r,3r)-3-((2-(2,6-dioxopiperidin-3-yl)-7-methoxy-1,3-dioxoisoindolin-5-yl)oxy)cyclobutyl)amino)methyl)piperidin-1-yl)pyrazine-2-carboxamide] | 10 to 100 nM
